ChEMBL document CHEMBL1145621, “Orally efficacious thrombin inhibitors with cyanofluorophenylacetamide as the P2 motif” (Bioorg Med Chem Lett, 2008)

Experiments:
[1] = Half life in iv dosed dog; type: ADME, organism-based, Canis lupus familiaris; conditions: in vivo
[2] = Oral bioavailability in rat; type: ADME, organism-based; conditions: in vivo
[3] = Volume of distribution at steady state in rat at 3 mg/kg, iv; type: ADME, organism-based; set-up: dose 3 mg/kg, route intravenous; conditions: in vivo, read-out: Vdss
[4] = Cmax in rat at 30 mg/kg, po; type: ADME, organism-based; set-up: dose 30 mg/kg, route oral; conditions: in vivo
[5] = Bioavailability in dog at 10 mg/kg, po; type: ADME, organism-based, Canis lupus familiaris; conditions: in vivo
[6] = Half life in rat at 30 mg/kg, po; type: ADME, organism-based; set-up: dose 30 mg/kg, route oral; conditions: in vivo
[7] = Half life in rat at 3 mg/kg, iv; type: ADME, organism-based; set-up: dose 3 mg/kg, route intravenous; conditions: in vivo
[8] = Cmax in dog at 10 mg/kg, po; type: ADME, organism-based, Canis lupus familiaris; set-up: dose 10 mg/kg, route oral; conditions: in vivo
[9] = Bioavailability in rat at 30 mg/kg, po; type: ADME, organism-based; conditions: in vivo
[10] = Half life in dog at 10 mg/kg, po; type: ADME, organism-based, Canis lupus familiaris; set-up: dose 10 mg/kg, route oral; conditions: in vivo
[11] = Metabolic stability in rat liver microsomes after 10 mins; type: ADME, Microsome; conditions: read-out: Stability
[12] = Volume of distribution at steady state in dog at 1 mg/kg, iv; type: ADME, organism-based, Canis lupus familiaris; set-up: dose 1 mg/kg, route intravenous; conditions: in vivo, read-out: Vdss
[13] = Clearance in rat at 3 mg/kg, iv; type: ADME, organism-based; set-up: dose 3 mg/kg, route intravenous; conditions: in vivo
[14] = Clearance in dog at 1 mg/kg, iv; type: ADME, organism-based, Canis lupus familiaris; set-up: dose 1 mg/kg, route intravenous; conditions: in vivo
[15] = Half life in dog at 1 mg/kg, iv; type: ADME, organism-based, Canis lupus familiaris; set-up: dose 1 mg/kg, route intravenous; conditions: in vivo
[16] = Oral bioavailability in dog; type: ADME, organism-based, Canis lupus familiaris; conditions: in vivo
[17] = Cmax in rat at 10 mg/kg, po; type: ADME, organism-based; set-up: dose 10 mg/kg, route oral; conditions: in vivo
[18] = Metabolic stability in human liver microsomes after 10 mins; type: ADME, Microsome; conditions: read-out: Stability
[19] = Bioavailability in rat at 10 mg/kg, po; type: ADME, organism-based; conditions: in vivo
[20] = Metabolic stability in dog liver microsomes after 10 mins; type: ADME, Canis lupus familiaris, Microsome; conditions: read-out: Stability
[21] = Half life in rat at 2 mg/kg, iv; type: ADME, organism-based; set-up: dose 2 mg/kg, route intravenous; conditions: in vivo
[22] = Volume of distribution at steady state in rat at 2 mg/kg, iv; type: ADME, organism-based; set-up: dose 2 mg/kg, route intravenous; conditions: in vivo, read-out: Vdss
[23] = Clearance in rat at 2 mg/kg, iv; type: ADME, organism-based; set-up: dose 2 mg/kg, route intravenous; conditions: in vivo
[24] = Cmax in po dosed dog; type: ADME, organism-based, Canis lupus familiaris; set-up: route oral; conditions: in vivo

Row | Compound | half-life [1] [min] | bioavailability [2] [%] | bioavailability [5] [%] | Cmax [8] [µM] | half-life [10] [min] | remaining at 10 min [11] [%] | Vd [12] [L/kg] | clearance [14] [mL/min/kg] | half-life [15] [min] | remaining at 10 min [20] [%] | other results
1 | CCCN(Cc1ccoc1)C(=O)c1cc(C)cc(OCC2(CON=C(N)N)CC2)c1 | 264 | 24 |  |  |  |  |  |  |  |  | 
2 | Cc1ccc(C(F)(F)CNc2ccc(C#N)c(CC(=O)NCCONC(=N)N)c2F)nc1 |  |  | 45 | 2.8 | 150 | > 95 | 3.6 | 18 | 216 |  | Vd [3]: 2.3 L/kg; Cmax [4]: 250 nM; half-life [6]: 150 min; half-life [7]: 78 min; bioavailability [9]: 2%; clearance [13]: 30 mL/min/kg
3 | Cc1cccc(S(=O)(=O)Nc2ccc(C)n(CC(=O)NCCONC(=N)N)c2=O)c1 |  | 6 |  |  |  |  |  |  |  |  | bioavailability [16]: 24%
4 | N#Cc1ccc(NCC(F)(F)c2ccccn2)c(F)c1CC(=O)NCCONC(=N)N |  |  | 49 | 3.5 | 150 | > 95 | 2.9 | 13 | 174 | ≥ 86 | Cmax [17]: 30 nM; remaining at 10 min [18]: ≥ 86%; bioavailability [19]: 2%; half-life [21]: 60 min; Vd [22]: 6 L/kg; clearance [23]: 67 mL/min/kg
5 | Cc1nc(N)ccc1CNC(=O)Cc1c(C#N)ccc(NCC(F)(F)c2ccccn2)c1F | 66 |  | 26 |  |  |  |  | 34 |  | 100 | Cmax [24]: 800 nM
6 | Cc1cccc(C(F)(F)CNc2ccc(C#N)c(CC(=O)NCCONC(=N)N)c2F)n1 |  |  | 65 | 3.3 | 192 |  | 2.9 | 15 | 168 |  | 
